Results on four molecules are retold here after US20230149355A1, “COMPOSITIONS AND METHODS FOR MODULATING TRP CHANNEL ACTIVITY” (priority 2020, published 2023).

Molecules are shown by their SMILES. pEC50, pIC50: −log10 of the molar value.

The test system of one test is vagal sensory neurons. As to the kind of experiment: In vivo calcium imaging of vagal sensory ganglia after microgavage. Further details: species or system zebrafish. Particulars: WT; enteric microgavage ~8 nl, AITC 100 mM, indole 1 mM, IAld 1 mM. As for the experimental part: For delivering bacterial or chemicals specifically to the intestine, the established microgavage technique (Cocchiaro and Rawls, 2013) was adopted. Zebrafish were anesthetized with 1 mg/mL α-Bungarotoxin (α-BTX) and the gavage procedure was performed as previously described using microinjection station (Cocchiaro and Rawls, 2013). For bacteria gavage experiments, 1 ml of overnight bacterial culture was harvested, pelleted, washed with PBS and resuspended in 100 ul PBS.˜8 nl was then delivered into the zebrafish intestine using microgavage. The gavaged zebrafish was then transferred into egg water and mounted in 1% LMA for imaging. For chemical gavage experiments, ˜8 nl of AITC (100 mM), indole (1 mM) and IAld (1 mM) was gavaged into the intestine.
Tg(neurod1:Gcamp6f); Tg(neurod1:TagRFP) zebrafish were used to record vagal sensory ganglia calcium activity in vivo. Zebrafish were anesthetized with 1 mg/mL α-Bungarotoxin (α-BTX) and gavaged with chemical compounds or bacteria as described (Naumann et al., 2016). Zebrafish larvae were mounted in 1% LMA and imaged under a Zeiss 780 upright confocal microscope. Z-stack images of the entire vagal ganglia were collected as serial images at 10 mins/frame and processed in FIJI. Individual vagal sensory neurons were identified and the Gcamp6f to TagRFP fluorescence ratios of individual vagal sensory neurons were calculated.

For another test, the target named is human TRPA1 (Homo sapiens, UniProt O75762). Nature of the test: Ca2+ influx (Calcium 6 fluorescence) in human TRPA1 expressing HEK-293T cells. It counts as cell-based. As to the method:
(§1) HEK-293T cells were cultured in DMEM (Thermofisher Scientific, Waltham, Mass.) and supplemented with 10% fetal bovine serum (FBS) (Thermofisher Scientific), penicillin (100 units/mL) and streptomycin (0.1 mg/mL). Cells were plated on 100 mm tissue culture plates coated with poly-D-lysine (Sigma Aldrich, Saint Louis, Mo.) and grown to ˜60% confluence. The cells were transiently transfected for 16-24 hours with either human or mouse orthologs of TRPA1 using Fugene 6 transfection reagents and Opti-MEM (Thermofisher Scientific) according to the manufacturer's protocol. Subsequently, cells were trypsinized, re-suspended and re-plated onto poly-D-lysine coated 96-well plates (Krystal black walled plates, Genesee Scientific) at 5×10^5 cells/mL (100 μL/well) and allowed to grow for another 16-20 hrs prior to the experiments. Cells were maintained as monolayers in a 5% CO2 incubator at 37° C.
(§2) Measurements of changes in intracellular Ca^2+ concentrations ([Ca^2+]i) were performed as described previously (Caceres et al., 2017). In brief, cells in 96-well plates were loaded with Calcium 6, a no-wash fluorescent indicator, for 1.5 hrs (Molecular Devices, San Jose, Calif.) and then transferred to a FlexStation III benchtop scanning fluorometer chamber (Molecular Devices). Fluorescence measurements in the FlexStation were performed at 37° C. (Ex:485 nm, Em: 525 nm at every 1.8 s). After recording baseline fluorescence, agonists (indole, IAld, cinnamaldehyde) were added and fluorescence was monitored for a total of 60 s. […] The change in fluorescence was measured as Fmax-F0, where Fmax is the maximum fluorescence and F0 is the baseline fluorescence measured in each well.

The subject of a further test is zebrafish EECs (Trpa1). As to the kind of experiment: In vivo EEC calcium, Tg(neurod1:Gcamp6f) zebrafish. As to the method: To record in vivo EEC activity using the Tg(neurod1:Gcamp6f) system, a published protocol with slight modification (Ye et al., 2019) was used. In brief, unanesthetized zebrafish larvae were gently mounted in 3% methylcellulose. Excess water was removed and zebrafish larvae were gently positioned with right side up. Zebrafish were then moved onto an upright Leica M205 FA fluorescence stereomicroscope equipped with a Leica DFC 365FX camera. The zebrafish larvae were allowed to recover for 2 mins before 100 μL of test agent was pipetted directly in front of the mouth region. Images were then recorded every 10 seconds. The data shown in FIG. 2O-R, depicting the EEC responses to E. tarda stimulation, were obtained by mounting unanesthetized zebrafish larvae in 1% low melting agarose. A window (5×5 mm) was cut to expose the head region of the zebrafish. 10 μL of E. tarda culture [˜10^9 Colony Forming Unit (CFU)] were delivered at the zebrafish mouth area. Images were recorded every 10 secs for 20 mins. Image processing and analysis were performed using FIJI software. Time-lapse fluorescence images were first aligned to correct for experimental drift using the plugin “align slices in stack.” Normalized correlation coefficient matching and bilinear interpolation methods for subpixel translation were used for aligning slices (Tseng et al., 2012). The plugin “rolling ball background subtraction” with the rolling ball radius=10 pixels was used to remove the large spatial variation of background intensities. The Gcamp6f fluorescence intensity in the intestinal region was then calculated for each time point. The ratio of maximum fluorescence (Fmax) and the initial fluorescence (F0) was used to measure EEC calcium responses.
For EEC Trpa1 activation using the Optovin platform, zebrafish larvae were treated with 10 μM Optovin overnight. Following Optovin treatment, unanesthetized zebrafish were mounted in 1% LMA and imaged under a 780 upright Zeiss confocal microscope using 20× water objective lenses. For all the experiments, the mid-intestine region was imaged (FIG. 10D). The intestinal epithelium was selected as the region of interest (ROI) (FIG. 10A). Serial images were obtained at 1 s/frame. A 405 nm pulse of light was applied to the ROI at 1 pulse/10 s. For some experiments (FIG. 7D-F, FIG. 10B-G), the images were obtained at 10 s/frame. When measuring Optovin effects on intestinal motility in ret−/−, sox10−/− or tph1b−/− zebrafish larvae, embryos were collected from heterozygous zebrafish. ret−/− zebrafish were identified by lack of ENS and deflated swim bladder (Knight et al., 2011), sox10−/− zebrafish were identified by lack of pigment (Rolig et al., 2017), and tph1b−/− zebrafish were identified by PCR-based genotyping (Tornini et al., 2017).
To determine whether Optovin-UV or ChR2 was sufficient to activate EECs, Tg(neurod1:Gcamp6f) zebrafish were used. […] The Gcamp6f signal was recorded with 488 nm laser intensity less than 0.5. The zebrafish intestinal motility is quantified through recorded image series of zebrafish intestine using the method similar as previously described (Ganz et al., 2018). […] When calculating the mean velocity, only the mean velocity magnitude was calculated, which therefore doesn't account for the movement direction. The MTrackJ FIJI plugin was used to quantify the mean velocity magnitude (Meijering et al., 2012).

In another test the target is T1, mouse TRPA1 (Mus musculus, UniProt Q8BLA8).
T1 construct: expressed in transfected cells; host or cells: HEK-293T
Nature of the test: Ca2+ influx (Calcium 6 fluorescence) in mouse Trpa1-expressing HEK-293T cells. It counts as cell-based. As to the method:
as §1, §2

A further test deals with intestinal motility. As to the kind of experiment: Zebrafish intestinal motility (PIV-Lab velocity analysis). It is filed as in vivo.
A further test concerns AhR signaling. Particulars: 2-hour 10 μM and 3-day 0.5 μM treatment; cited from earlier work.
The next test concerns E. tarda. Nature of the test: Intestinal E. tarda mCherry accumulation in zebrafish treated with AhR inhibitors. It counts as in vivo. The settings on record: AhR inhibitor 1 μM or folic acid 10 μM, 3 dpf to 6 dpf. As for the experimental part: For E. tarda colonization experiments, fertilized zebrafish eggs were collected, sorted and transferred into a cell culture flask containing 80 mL GZM at 0 dpf. At 3 dpf, dead embryos and 60 mL GZM were removed and replaced with 50 mL fresh GZM in each flask. To facilitate consistent commensal gut bacterial colonization, an additional 10 mL of filtered system water (5 μm filter, SLSV025LS, Millipore) were added to each flask. Overnight E. tarda mCherry culture was harvested, washed three times with GZM. 150 μL of GZM-washed E. tarda mCherry culture were inoculated into each flask. The E. tarda concentration is ˜10^6 CFU/ml. […] At 6 dpf, zebrafish larvae were subjected to fluorescence imaging analysis or CFU quantification. For fluorescence imaging analysis, zebrafish larvae were anesthetized with Tricaine ([…]), mounted in 3% methylcellulose and imaged with a Leica M205 FA upright fluorescence stereomicroscope equipped with a Leica DFC 365FX camera. For CFU quantification, digestive tracts were dissected and transferred into 1 mL sterile PBS which was then mechanically disassociated using a Tissue-Tearor (BioSpec Products, 985370). […] The mCherry+ colonies were quantified from each plate and E. tarda colony forming units (CFUs) per fish were calculated. […]

Sequence of human TRPA1 (O75762 whole entry): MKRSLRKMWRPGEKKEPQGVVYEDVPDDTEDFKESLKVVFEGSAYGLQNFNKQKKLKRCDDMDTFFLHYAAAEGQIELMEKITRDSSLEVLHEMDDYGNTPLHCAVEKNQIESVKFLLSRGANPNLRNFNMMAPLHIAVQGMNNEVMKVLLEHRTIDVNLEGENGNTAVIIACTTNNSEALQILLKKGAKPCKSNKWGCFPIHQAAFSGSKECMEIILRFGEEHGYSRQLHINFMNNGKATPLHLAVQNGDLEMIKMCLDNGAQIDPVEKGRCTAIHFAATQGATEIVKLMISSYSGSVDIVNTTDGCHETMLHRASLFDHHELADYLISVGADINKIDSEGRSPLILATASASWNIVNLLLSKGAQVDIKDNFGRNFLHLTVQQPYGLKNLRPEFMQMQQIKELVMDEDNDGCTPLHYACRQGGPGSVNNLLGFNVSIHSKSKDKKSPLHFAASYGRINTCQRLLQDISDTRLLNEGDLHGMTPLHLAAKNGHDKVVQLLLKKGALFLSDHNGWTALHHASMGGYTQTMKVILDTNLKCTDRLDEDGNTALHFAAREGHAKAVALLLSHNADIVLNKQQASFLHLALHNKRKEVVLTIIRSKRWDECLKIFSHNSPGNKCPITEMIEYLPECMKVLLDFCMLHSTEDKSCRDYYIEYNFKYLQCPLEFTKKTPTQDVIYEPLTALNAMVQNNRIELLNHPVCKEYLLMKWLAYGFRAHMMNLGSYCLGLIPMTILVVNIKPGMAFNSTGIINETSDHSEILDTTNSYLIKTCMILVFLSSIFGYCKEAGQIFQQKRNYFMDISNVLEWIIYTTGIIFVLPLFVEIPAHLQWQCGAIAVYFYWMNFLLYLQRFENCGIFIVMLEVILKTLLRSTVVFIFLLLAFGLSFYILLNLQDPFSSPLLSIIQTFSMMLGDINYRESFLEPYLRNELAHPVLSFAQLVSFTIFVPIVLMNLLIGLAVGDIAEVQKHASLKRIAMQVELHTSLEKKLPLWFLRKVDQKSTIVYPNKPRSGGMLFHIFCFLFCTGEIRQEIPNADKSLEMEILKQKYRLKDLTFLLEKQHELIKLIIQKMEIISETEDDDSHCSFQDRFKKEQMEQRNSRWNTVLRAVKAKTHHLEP
T1 sequence (Q8BLA8 whole entry): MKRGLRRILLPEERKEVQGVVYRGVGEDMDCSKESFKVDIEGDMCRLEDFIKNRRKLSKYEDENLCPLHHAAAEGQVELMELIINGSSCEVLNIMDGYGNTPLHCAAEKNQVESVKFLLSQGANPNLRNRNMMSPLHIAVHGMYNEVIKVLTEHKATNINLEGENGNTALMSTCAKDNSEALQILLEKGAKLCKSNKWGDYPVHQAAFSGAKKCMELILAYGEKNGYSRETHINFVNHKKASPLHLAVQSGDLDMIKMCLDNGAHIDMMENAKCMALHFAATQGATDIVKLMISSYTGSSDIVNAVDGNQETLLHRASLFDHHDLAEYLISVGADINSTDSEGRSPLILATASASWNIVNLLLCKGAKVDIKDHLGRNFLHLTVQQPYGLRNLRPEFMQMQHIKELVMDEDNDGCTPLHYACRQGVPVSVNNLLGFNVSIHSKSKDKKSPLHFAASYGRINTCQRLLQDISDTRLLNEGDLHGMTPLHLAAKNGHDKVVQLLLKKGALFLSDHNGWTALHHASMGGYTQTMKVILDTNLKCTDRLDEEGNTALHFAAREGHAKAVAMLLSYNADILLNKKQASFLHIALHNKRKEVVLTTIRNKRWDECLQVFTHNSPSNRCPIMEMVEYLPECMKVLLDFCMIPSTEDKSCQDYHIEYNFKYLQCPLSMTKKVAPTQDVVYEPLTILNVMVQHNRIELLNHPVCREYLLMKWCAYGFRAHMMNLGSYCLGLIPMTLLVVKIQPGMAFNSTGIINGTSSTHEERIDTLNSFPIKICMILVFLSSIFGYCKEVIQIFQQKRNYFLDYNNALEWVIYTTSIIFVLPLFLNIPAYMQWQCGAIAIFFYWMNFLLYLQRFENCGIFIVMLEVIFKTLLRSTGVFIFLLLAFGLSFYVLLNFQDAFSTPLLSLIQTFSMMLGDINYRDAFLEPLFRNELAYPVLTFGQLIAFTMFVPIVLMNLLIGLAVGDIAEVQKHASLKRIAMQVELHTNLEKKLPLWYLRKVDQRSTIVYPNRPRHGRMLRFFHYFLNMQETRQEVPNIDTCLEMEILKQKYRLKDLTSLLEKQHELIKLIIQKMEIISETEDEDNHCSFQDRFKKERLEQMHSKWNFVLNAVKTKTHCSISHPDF
Description for intestinal motility: The zebrafish intestinal motility is quantified through recorded image series of zebrafish intestine using the method similar as previously described (Ganz et al., 2018). Intestinal p velocity and v velocity were used to estimate intestinal motility in zebrafish as previously described using the PIV-Lab MATLAB app (Ganz et al., 2018). A positive value of the μ velocity indicates an anterograde intestinal movement and a negative value of the μ velocity indicates a retrograde intestinal movement. The time-course p velocity number is plotted as heatmaps. When calculating the mean velocity, only the mean velocity magnitude was calculated, which therefore doesn't account for the movement direction. The MTrackJ FIJI plugin was used to quantify the mean velocity magnitude (Meijering et al., 2012).

The term pEC50 denotes −log10 of the EC50, conventionally taken in molar units. Turning to `O=Cc1c[nH]c2ccccc12` [IAld, indole-3-carboxaldehyde], the “Gcamp6f fluorescence in a subset of vagal sensory neurons” value in the test on vagal sensory neurons was “increased”. Further, the “Activation of human TRPA1 receptor transfected into HEK cells” value at human TRPA1 is given as “activated”. Besides, the TRPA1 agonist efficacy entry on human TRPA1 (efficiency comparable to cinnamaldehyde (CAD)) is listed as “full TRPA1 agonist activity”. In addition, the pEC50 on human TRPA1 (human TRPA1 expressing HEK-293T cells, normalized to 1 mM cinnamaldehyde (CAD), read-out: EC50, integrated Calcium 6 fluorescence response above baseline (Fmax-F0; maximal change in Ca2+ influx)) was 4.11; at mouse TRPA1 (mouse TRPA1, normalized to 1 mM cinnamaldehyde (CAD), read-out: EC50, dose-response effects on mouse TRPA1), 3.72. Besides, in the test with zebrafish EECs (Trpa1) (trpa1b-dependent), the “Zebrafish EEC activation (Gcamp6f fluorescence)” value is given as “strongly activated”. Besides, the “Activation of mouse Trpa1” value at mouse TRPA1 (compared with human TRPA1) is given as “activated mouse Trpa1, but in a less potent manner”.
As for `Cc1ccccc1N=Nc1ccc(NC(=O)c2ccnn2C)c(C)c1` [CH223191], the “Effect on Optovin-UV induced intestinal motility change” value in the test with intestinal motility (AhR inhibitor 10 μM or folic acid 10 μM for 2 hours) is recorded as “insufficient to block”. Besides, in the test on AhR signaling, the “Inhibition of larvae zebrafish AhR signaling” value is “sufficient to inhibit”. Further, the “Effect on E. tarda intestinal accumulation” value with E. tarda is “insufficient to block”.
As usually defined, the pIC50 is the negative decadic logarithm of the IC50, by convention in mol/L. As to `CCC(=N\O)/C(C)=C/c1ccc(F)cc1` [A967079], the “Effect on indole- and IAld-induced human Trpa1 activation” value on human TRPA1 (human) is given as “blocked”. Besides, the “Effect on indole- and IAld-induced mouse Trpa1 activation” value at mouse TRPA1 (mouse) is given as “blocked”. Further, the pIC50 on mouse TRPA1 (mouse Trpa1-expressing HEK-293T cells, normalized to 100 μM Indole) is 6.50.
With `Cc1cc(/C=C2/SC(=S)NC2=O)c(C)n1-c1cccnc1` [Optovin], the “Intestinal motility after Optovin treatment and UV activation” value in the test with intestinal motility (EEC-ablated zebrafish) is on record as “failed to induce intestinal motility”. Besides, the “Velocity of intestinal motility after Optovin-UV Trpa1 activation” value with intestinal motility (WT larvae, middle intestine) is “increased”. Besides, the “EEC [Ca2+]i (Gcamp6f fluorescence) after UV light activation” value in the test on zebrafish EECs (Trpa1) (WT larvae pretreated with Optovin 10 μM overnight, 405 nm) was “significantly increased”. In addition, the “EEC [Ca2+]i after UV light exposure” value with zebrafish EECs (Trpa1) (trpa1b−/− larvae pretreated with Optovin) is given as “did not increase”.
